US6998240B2, “Screen for selective inhibitors or activators of Smad protein function” (Wisconsin Alumni Research Foundation, priority 2001, dated 2006)
Residues, ends and D or L forms follow the SMILES beside them.

What was measured:
[1] = biological target: T1, Smad2-P (Homo sapiens, UniProt Q15796); experiment: HTRF assay of biotin-FAST peptide binding to Smad2-P (competition)
T1 construct: Smad2; 1–467; pBlueBac; His; made in house; host or cells: Sf9 insect cells (baculovirus), co-infected with virus for membrane-targeted human Alk5 T204D
Text: (§1) To establish HTRF assays for Smad protein interactions, we have used reagents from Wallac-Perkin Elmer and Packard that include Europium-cryptate coupled to α-His epitope tag antibody, α-GST antibody or Streptavidin. As acceptor fluorophores we have used allophycocyanin (Packard's XL665) coupled to Streptavidin or direct labeling of GST-fusion protein with IC5 (Dojindo). Reagents are mixed in a 50 microliter volume in the wells of a 384 Black non-treated microwell plate (Corning) and HTRF detected in a Wallac Victor V multimode plate reader. The reader detects emission at 615 nm from the Europium chelate donor and at 665 nm from the APC or IC5 acceptor. Background, cross-talk and high FRET wells can be indicated on the plate map to allow the machine to compute a normalized value as a ratio Rn=(ET/D) Dmax where ET=A−BI−(C×D). • A—Fluorescence at 665 nm • BI—Blank (buffer only) at 665 nm • D—Fluorescence at 615 nm • C—Cross-talk correction value calculated from wells containing only donor fluorophore • (from “Quench Correction for LANCE TR-FRET” by Perkin-Elmer Wallace)
(§2) Over the past several months we have developed three HTRF assays for Smad binding interactions. All three assays use a Eu-chelate α-His epitope tag antibody as the donor. The antibody recognizes the hexahistidine epitope tag on the Smad proteins produced in the baculovirus expression system described above. As acceptors, we have used Streptavidin conjugated to allophycocyanin (Packard) that binds to biotinylated peptides. The peptides are synthesized to comprise the Smad interaction domain motif from human FAST or c-Jun (FIG. 3). The FAST 24-mer amino acid sequence is based on the homology between FAST, Mixer and Milk reported by Germain and colleagues (Germain, S., et al., supra, 2000). The24-mer C-JUN sequence is based on studies using deletions and gene fragments to define the Smad interaction motif (Zhang, Y., et al., supra, 1998; Liberati, N. T. et al., Proc. Natl. Acad. Sci. USA 96:4844–9, 1999). We also have developed an HTRF assay using IC5-GST-CBP, a fusion protein comprising the Smad interaction domain motif from CBP (a generous gift of Dr. Yigong Shi, Princeton University).
(§3) The assays are done in a 50 μl volume in the well of a 384-well plate. The assay buffer, as recommended by Packard for their HTRF reagents is 50 mM K-Hepes pH 7.0, 400 mM KF and 0.1% BSA. The high concentration of KF is recommended for the Eu(K) reagents from Packard. […] We have also optimized through many titrations the amount of Smad protein (220 ng/well, ˜4 pmoles per well of monomer), the concentration of biotinylated peptide (1 uMolar for FAST and C-JUN), the amount of Eu-anti-His tag antibody (36 ng/well) and the amount of Streptactin-APC (0.5 μg/well).
We used the FAST-SmadP HTRF assay described above. […] After 1 hr at room temperature, Streptavidin-APC was added to each well and 30 minutes later the fluorescence emissions at 615 nm and 665 nm were read in a PE-Wallac Victor V.

[2] = biological target: T1, Smad2-P; experiment: HTRF assay of IC5-GST-CBP binding to phosphorylated Smad2
Text: as §1, §2, §3
Table 5 contains data from using the GST-CBP fusion protein that is covalently coupled to the IC5 fluorophore acceptor through the cysteines in the GST portion of the fusion protein. There is no biotinylated peptide or Streptavidin-APC in these assays. […] The lower FRET counts could be due to larger distances between the donor and acceptor molecules in the complex. This might be overcome by using direct labeling of the Smad-P complex with Eu-cryptates rather than the Eu-labeled anti-His tag antibody.

[3] = biological target: Phosphorylated Smad2/4 Complex (Homo sapiens, UniProt Q15796); experiment: 96 well microplate solid phase binding assay of GST-CBP to phosphorylated Smad2/4 complex; design: Smad2; 1–467; pBlueBac; His; Smad4; 1–552; Strep; Strep-tag; made in house
Procedure: Table 7, below, tabulates the results of a 96 well Microplate Format Binding Assay of CBP to Smad2 and Phosphorylated Smad2/4 Complex. Duplicate wells are shown with indicated amounts of Smad protein bound per well. Three different dilutions of biotinylated GST-CBP protein were added per well and incubated at room temperture for 1 hour. Wells were washed 3× with TBS+1% tween and Alkaline phosphatase conjugated strepavidin (Tropix) added. Bound conjugate was detected by addition of the CSPD substrate (Tropix) and relative light units (RLU) measured in a Tropix 717 microplate reader at a read time of 1 second per well.

For `CC[C@H](C)[C@H](NC(=O)[C@H](CC(N)=O)NC(=O)[C@@H](NC(=O)[C@H](CCCNC(=N)N)NC(=O)[C@H](Cc1ccc(O)cc1)NC(=O)[C@H](CC(C)C)NC(=O)[C@H](Cc1c[nH]cn1)NC(=O)[C@H](CCC(N)=O)NC(=O)[C@H](CCC(N)=O)NC(=O)[C@H](CCC(N)=O)NC(=O)[C@H](CCC(N)=O)NC(=O)[C@H](C)NC(=O)[C@H](CCC(=O)O)NC(=O)[C@H](CCCNC(=N)N)NC(=O)[C@H](CCC(=O)O)NC(=O)[C@@H](NC(=O)[C@H](CCC(N)=O)NC(=O)[C@H](CCCNC(=N)N)NC(=O)[C@H](C)NC(=O)[C@H](C)NC(=O)[C@H](CCC(=O)O)NC(=O)[C@@H](NC(=O)[C@H](C)N)C(C)C)[C@@H](C)CC)C(C)C)C(N)=O` [CBP] (H-AVEAARQIEREAQQQQHLYRVNI-NH2; N-terminus assumed), the “competition for Biotin-FAST binding to Smad-2P (in words)” value [1] was “inability”, the “competition for binding with the GST-CBP fusion protein (in words)” value [2] was “can compete” and the “Average Normalized Counts” value ([2]; 50 μM inhibitor peptide, IC5-GST-CBP binding to Smad2-P) was 587. For the same compound, the remaining activity at 50 µM ([2]; 50 μM inhibitor peptide, IC5-GST-CBP binding to Smad2-P, read-out: Percent of Control (minus background)) was 70%, the “Average Normalized Counts” value ([2]; 100 μM inhibitor peptide, IC5-GST-CBP binding to Smad2-P) was 478 and the remaining activity at 100 µM ([2]; 100 μM inhibitor peptide, IC5-GST-CBP binding to Smad2-P, read-out: Percent of Control (minus background)) was 51%. For the same compound, the IC50 ([2]; read-out: concentration of peptide for 50% inhibition of GST-CBP binding) was 100 µM and the “CBP bound by Smad-P complexes relative to an equivalent amount of unphosphorylated Smad” value [3] was over 30 fold.
